Reference: ChEMBL document CHEMBL1156289, “Potent and selective inhibition of human cytochrome P450 3A4 by seco-pancratistatin structural analogs” (Bioorg Med Chem Lett, 2010)
Activity calls are given as the source filed them. The rule behind the calls is not given here.

Key:
[1] = target: T1, Cytochrome P450 3A4 (Homo sapiens, UniProt P08684); assay: Inhibition of human recombinant CYP3A4 assessed as biotransformation of […] at 10 uM measured every minute for 15 mins by fluorescence intensity assay; format: ADME
[2] = target: T1, Cytochrome P450 3A4; assay: Inhibition of human recombinant CYP3A4 assessed as biotransformation of […] measured every minute for 15 mins by fluorescence intensity assay; format: ADME
[3] = system: MCF7; assay: Cytotoxicity against human MCF7 cells at 10 uM; format: functional, cell-based

T1 sequence (P08684 whole entry): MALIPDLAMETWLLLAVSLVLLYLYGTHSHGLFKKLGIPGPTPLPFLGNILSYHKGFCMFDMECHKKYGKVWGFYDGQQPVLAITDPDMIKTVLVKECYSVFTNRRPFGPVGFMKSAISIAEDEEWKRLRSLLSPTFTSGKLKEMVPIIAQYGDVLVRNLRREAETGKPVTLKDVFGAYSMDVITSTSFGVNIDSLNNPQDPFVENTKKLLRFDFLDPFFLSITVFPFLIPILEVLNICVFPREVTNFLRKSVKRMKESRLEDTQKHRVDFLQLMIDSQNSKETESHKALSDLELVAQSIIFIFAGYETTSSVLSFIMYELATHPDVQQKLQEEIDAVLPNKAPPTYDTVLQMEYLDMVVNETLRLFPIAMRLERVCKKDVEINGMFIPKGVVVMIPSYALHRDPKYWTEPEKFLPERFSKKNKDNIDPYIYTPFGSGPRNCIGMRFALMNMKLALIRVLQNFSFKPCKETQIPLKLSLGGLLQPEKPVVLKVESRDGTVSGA

Ki [1]	Ki [2]	SMILES	Activity [3]
Not Active	–	CC(C)OC(=O)[C@H](c1ccc2c(c1)OCO2)[C@H](O)[C@@H]1OC(C)(C)O[C@H]1CO[Si](C)(C)C(C)(C)C	–
–	1780 nM	COCO[C@H]([C@@H]1OC(C)(C)O[C@H]1CO)[C@H](CNC(=O)c1ccccc1)c1ccc2c(c1)OCO2	inactive
–	–	O=C(NC[C@H](c1ccc2c(c1)OCO2)[C@H](O)[C@H](O)[C@@H](O)CO)c1ccccc1	inactive
–	240 nM	COCO[C@H]([C@@H]1OC(C)(C)O[C@H]1CO[Si](C)(C)C(C)(C)C)[C@H](CNC(=O)OC(C)(C)C)c1ccc2c(c1)OCO2	inactive
–	–	COCO[C@@H]([C@@H]1OC(C)(C)O[C@H]1CO)[C@@H](CNC(=O)c1ccccc1)c1ccc2c(c1)OCO2	inactive
–	70 nM	COCO[C@H]([C@@H]1OC(C)(C)O[C@H]1COS(=O)(=O)c1ccc(C)cc1)[C@H](CNC(=O)c1ccccc1)c1ccc2c(c1)OCO2	inactive
–	–	COCO[C@@H]([C@@H]1OC(C)(C)O[C@H]1COS(=O)(=O)c1ccc(C)cc1)[C@@H](CNC(=O)c1ccccc1)c1ccc2c(c1)OCO2	inactive
–	–	CC1(C)O[C@@H]([C@H](O)[C@@H](CNC(=O)c2ccccc2)c2ccc3c(c2)OCO3)[C@H](CO[Si](C)(C)C(C)(C)C)O1	inactive
–	–	COCO[C@@H]([C@@H]1OC(C)(C)O[C@H]1CO[Si](c1ccccc1)(c1ccccc1)C(C)(C)C)[C@@H](CNC(=O)c1ccccc1)c1ccc2c(c1)OCO2	inactive
–	–	COCO[C@@H]([C@@H]1OC(C)(C)O[C@H]1CO[Si](C)(C)C(C)(C)C)[C@@H](CNC(=O)c1ccccc1)c1ccc2c(c1)OCO2	inactive
–	–	COCO[C@@H]([C@@H]1OC(C)(C)O[C@H]1COC(C)=O)[C@@H](CNC(=O)c1ccccc1)c1ccc2c(c1)OCO2	inactive
–	30 nM	COCO[C@H]([C@@H]1OC(C)(C)O[C@H]1CO[Si](C)(C)C(C)(C)C)[C@H](CNC(=O)c1ccccc1)c1ccc2c(c1)OCO2	inactive
–	–	CC1(C)O[C@@H]([C@H](O)[C@@H](CNC(=O)c2ccccc2)c2ccc3c(c2)OCO3)[C@H](CO)O1	inactive
Not Active	–	COCO[C@H]([C@@H]1OC(C)(C)O[C@H]1CO[Si](C)(C)C(C)(C)C)[C@H](CO)c1ccc2c(c1)OCO2	–
–	–	O=C(NC[C@@H](c1ccc2c(c1)OCO2)[C@@H](O)[C@H](O)[C@@H](O)CO)c1ccccc1	inactive
–	–	COCO[C@@H]([C@@H]1OC(C)(C)O[C@H]1CO[Si](C)(C)C(C)(C)C)[C@@H](CNC(=O)OC(C)(C)C)c1ccc2c(c1)OCO2	inactive
Not Active	–	COCO[C@H]([C@@H]1OC(C)(C)O[C@H]1CO[Si](C)(C)C(C)(C)C)[C@H](CN=[N+]=[N-])c1ccc2c(c1)OCO2	inactive
